According to ChEMBL document CHEMBL5032524, “Discovery of novel IDO1 inhibitors targeting the protein's apo form through scaffold hopping from holo-IDO1 inhibitor” (Bioorg Med Chem Lett, 2021):

Legend:
[1] = target: T1, Indoleamine 2,3-dioxygenase 1 (Homo sapiens, UniProt P14902); assay: Inhibition of IDO1 in human HeLa cells; assay type: cell-based
[2] = target: T1, Indoleamine 2,3-dioxygenase 1; assay: Inhibition of recombinant human IDO1

T1 sequence (P14902 whole entry): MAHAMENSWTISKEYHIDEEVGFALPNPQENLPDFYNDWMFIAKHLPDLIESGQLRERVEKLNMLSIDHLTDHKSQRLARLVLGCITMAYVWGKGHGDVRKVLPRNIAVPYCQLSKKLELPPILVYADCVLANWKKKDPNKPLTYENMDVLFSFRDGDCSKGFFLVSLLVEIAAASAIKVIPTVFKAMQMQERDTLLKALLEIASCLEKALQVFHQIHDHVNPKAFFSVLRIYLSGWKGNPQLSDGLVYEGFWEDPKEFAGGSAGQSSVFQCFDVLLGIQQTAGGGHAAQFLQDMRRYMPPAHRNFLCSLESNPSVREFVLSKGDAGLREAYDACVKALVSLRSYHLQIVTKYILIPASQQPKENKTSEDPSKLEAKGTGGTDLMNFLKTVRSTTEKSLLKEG

Row | SMILES | IC50 [1] [µM] | IC50 [2] [µM]
1 | CC(C)CN(CC(C)C)c1ccc(/C(=N/O)Nc2ccc(F)c(Br)c2)cc1NC(=O)Nc1ccc(Cl)cc1 | 0.44 | 1.49
2 | CC(C)CN(CC(C)C)c1ccc(/C(=N/O)Nc2ccc(F)c(Br)c2)cc1NC(=O)NC1CCCCC1 | 1.34 | > 3
3 | Cc1ccc(NC(=O)Nc2cc(/C(=N/O)Nc3ccc(F)c(Br)c3)ccc2N(CC(C)C)CC(C)C)cc1 | 0.76 | 2.3
4 | Cc1ccc(N/C(=N\O)c2ccc(N(CC(C)C)CC(C)C)c(NC(=O)Nc3cncnc3)c2)cc1 | 0.44 | 2.32
5 | CCCNC(=O)Nc1nonc1/C(=N/O)Nc1ccc(F)c(Br)c1 | – | 0.127
6 | CC(C)CN(CC(C)C)c1ccc(/C(=N/O)Nc2ccc(F)c(Br)c2)cc1NC(=O)Nc1cncnc1 | 0.86 | > 3
7 | Cc1ccc(NC(=O)Nc2cc(/C(=N/O)Nc3ccc(C)cc3)ccc2N(CC(C)C)CC(C)C)cc1 | 1.34 | 1.56
8 | CCCCNC(=O)Nc1cc(/C(=N/O)Nc2ccc(F)c(Br)c2)ccc1N(CC(C)C)CC(C)C | 3.11 | > 3
9 | CCCNC(=O)Nc1cc(/C(=N/O)Nc2ccc(F)c(Br)c2)ccc1N(CC(C)C)CC(C)C | 2.61 | 2.9
10 | CC(C)CN(CC(C)C)c1ccc(/C(=N/O)Nc2ccc(F)c(Br)c2)cc1NC(=O)Nc1ccc(C(F)(F)F)cc1 | 2.09 | > 3
